Assay results published in patent US20080260722A1, “Method for High Efficiency Survival/Proliferation of Human Embyonic Stem Cells and Human Embryo Survival in Culture” (The Johns Hopkins University Johns Hopkins Technology …, priority 2004, published 2008).

Legend:
hES cells [1] = test: low-density survival assay in MEF-CM with TRK inhibitors; format: cell-based, human; conditions: increasing inhibitor concentrations, versus DMSO vehicle
Procedure: TRK signaling and survival can be blocked by pharmacological inhibition; TRK inhibitors were added to hES cells plated with MEF-CM in the low-density survival assay; hES cells were exposed to increasing concentrations of a GW441756, K252A, or vehicle (DMSO).
Human ES cell lines H1 and H9 were cultured as described by Thornson and colleagues^15 in high glucose DMEM supplemented with L-glutanine, non-essential amino acids, serum replacement (Invitrogen) and 4 ng/ml basic Fibroblast growth factor (Invitrogen). Mouse embryo fibroblasts (MEFs) (Specialty Media). were plated at 5-7×10^6 cells/ml. To prepare single cell suspensions of hES cells, the cells were washed twice with PBS, then incubated in 0.05% trypsin/EDTA (InVitrogen) for 5 minutes at 37° C. The cells were triturated with a 5-ml pipette until a single cell suspension was obtained. […] For low-density survival assays, trypsinized cells were counted using a hemocytometer and 500 cells were plated in each well of 96-well plate containing MEFs or coated with Matrigel (BD Biosciences). […] Individual hES cells or hES cell colonies were counted manually on an inverted microscope. […]
To test this prediction, hES cell survival was measured using the low density survival assay in the presence or absence of two different TRK inhibitors, GW441756 and K252a^17-19.

TRKs = conditions: cited from earlier work
hES cells [2] = test: low-density survival assay in NTs without bFGF with pathway inhibitors; format: cell-based, human; conditions: single cells at low density in NTs, no bFGF, increasing inhibitor concentrations
Procedure: FIG. 8. PI-3K activity is required for hES cell survival; a. […] NTs have differential effects on AKT and MEK1/2 phosphorylation; hES cells were grown in the presence or absence of NTs (but without bFGF) and cell lysates probed with antibodies to phospho-AKT or phospho-MEK1/2; in the absence of NTs, a weak phospho-AKT band is observed; upon stimulation of hES cells with NTs a stronger band is observed; the intensity of the bands were compared to the total level of AKT and to a loading control (Beta-tubulin); in contrast no change in the level of phospho-MEK1/2 was observed by comparison with the controls.
Human ES cell lines H1 and H9 were cultured as described by Thornson and colleagues^15 in high glucose DMEM supplemented with L-glutanine, non-essential amino acids, serum replacement (Invitrogen) and 4 ng/ml basic Fibroblast growth factor (Invitrogen). Mouse embryo fibroblasts (MEFs) (Specialty Media). were plated at 5-7×10^6 cells/ml. To prepare single cell suspensions of hES cells, the cells were washed twice with PBS, then incubated in 0.05% trypsin/EDTA (InVitrogen) for 5 minutes at 37° C. […] For low-density survival assays, trypsinized cells were counted using a hemocytometer and 500 cells were plated in each well of 96-well plate containing MEFs or coated with Matrigel (BD Biosciences). […] Individual hES cells or hES cell colonies were counted manually on an inverted microscope. […]

hES cells [3] = test: low-density survival assay with individual neurotrophins on MEFs or Matrigel; format: cell-based, human; conditions: 500 cells/well on MEFs or Matrigel, 0.01-100 ng/ml, 4-5 days
From the text: FIG. 4. Individual neurotrophins have dose-dependent effects on hES cell survival; a. Effect of NTs on hES cell survival at low-density on MEFs. hES cells were trypsinized and plated at low density (500 cells per well) on MEFs in 96-well plates in the presence of NT3, BDNF, NT4, NGF or hES medium lacking added growth factor; After 4-5 days, the colonies (comprised of approximately 7-11 cells) were fixed and stained for alkaline phosphatase; b. […] NTs (BDNF, NT4 and NT3) also have statistically significant differences between concentrations of 0.01-100 ng/ml at p<0.05; c. Phase contrast images (at 4×) of morphology of hES cell colonies observed on MEFs or Matrigel™ in the low-density survival assay.
Human ES cell lines H1 and H9 were cultured as described by Thornson and colleagues^15 in high glucose DMEM supplemented with L-glutanine, non-essential amino acids, serum replacement (Invitrogen) and 4 ng/ml basic Fibroblast growth factor (Invitrogen). Mouse embryo fibroblasts (MEFs) (Specialty Media). were plated at 5-7×10^6 cells/ml. To prepare single cell suspensions of hES cells, the cells were washed twice with PBS, then incubated in 0.05% trypsin/EDTA (InVitrogen) for 5 minutes at 37° C. The cells were triturated with a 5-ml pipette until a single cell suspension was obtained. Trypsin inhibitor (InVitrogen) was added and the cell suspension filtered through a […] (Fisher Scientific) to remove clumps and MEFs. For clonal survival assays, single hES cells were diluted to clonal density and plated into a well of a 96-well plate containing MEFs. For low-density survival assays, trypsinized cells were counted using a hemocytometer and 500 cells were plated in each well of 96-well plate containing MEFs or coated with Matrigel (BD Biosciences). To visualize hES colonies, cultures were fixed in 4% para-formaldehyde in PBS for 30 minutes, washed once in PBS, once in distilled H2O, then stained for alkaline phosphatase activity as described previously^25. Individual hES cells or hES cell colonies were counted manually on an inverted microscope. NGF, BDNF, NT3 and NT4 were purchased from Peprotech. The TRK inhibitors GW441756 (Sigma) and K252A (Calbiochem), PI-3K inhibitor, MAPK inhibitors, STAT3 inhibitor and control peptides (all from Calbiochem) were prepared according to the manufacturer's instructions. For the antibody blocking experiments, antibodies to NGF, NT3, NT4 and BDNF as well as a control antibody were obtained from Promega. Antibodies were added to culture medium at a concentration of 20 ug/ml. Following culture, the cultures were fixed and stained for alkaline phosphatase activity as described above. Each experiment consisted of at least four replicates per treatment and each experiment was repeated at least three times. […]

Cn1cc(/C=C2\C(=O)Nc3cccnc32)c2ccccc21 [GW441756]
effect on hES cell survival (hES cells [1]): statistically-significant and dose-dependent effects on hES cell survival
selectivity for TRKs over many kinases including c-Src, VEGFR2, Raf and CDK1 (TRKs): 10-fold, or in some cases 100-fold

COC(=O)[C@@]1(O)C[C@H]2O[C@]1(C)n1c3ccccc3c3c4c(c5c6ccccc6n2c5c31)C(=O)NC4 [K252a]
effect on hES cell survival (hES cells [1]): statistically-significant and dose-dependent effects on hES cell survival

COc1cccc(-c2cc(=O)c3ccccc3o2)c1N [PD98059]
effect on hES cell survival (hES cells [2]): no effect on hES cell survival

CS/C(N)=C(C#N)/C(C#N)=C(\N)SC [UO124]
effect on hES cell survival (hES cells [2]): no effect on hES cell survival

nerve growth factors [NGF]
effect on hES cell survival (hES cells [3]): slight increase in hES cell survival

B1: brain derived neurotrophic factor (protein, UniProt P23560 19-247, looked up)
Neurotrophic factor BDNF …: APMKEANIRGQGGLAYPGVRTHGTLESVNGPKAGSRGLTSLADTFEHVIEELLDEDQKVRPNEENNKDADLYTSRVMLSSQVPLEPPLLFLLEEYKNYLDAANMSMRVRRHSDPARRGELSVCDSISEWVTAADKKTAVDMSGGTVTVLEKVPVSKGQLKQYFYETKCNPMGYTKEGCRGIDKRHWNSQCRTTQSYVRALTMDSKKRIGWRFIRIDTSCVCTLTIKRGR
notes: TRK ligand, neurotrophin purchased from Peprotech
effect on hES cell survival (hES cells [3]): potent, dose dependent effects on hES cell survival

B2: neurotrophin 3 (protein, UniProt P20783 139-257, looked up)
Neurotrophin-3: YAEHKSHRGEYSVCDSESLWVTDKSSAIDIRGHQVTVLGEIKTGNSPVKQYFYETRCKEARPVKNGCRGIDDKHWNSQCKTSQTYVRALTSENNKLVGWRWIRIDTSCVCALSRKIGRT
notes: as for B1
effect on hES cell survival (hES cells [3]): potent, dose dependent effects on hES cell survival

B3: neurotrophin 4 (protein, UniProt P34130 81-210, looked up)
Neurotrophin-4: GVSETAPASRRGELAVCDAVSGWVTDRRTAVDLRGREVEVLGEVPAAGGSPLRQYFFETRCKADNAEEGGPGAGGGGCRGVDRRHWVSECKAKQSYVRALTADAQGRVGWRWIRIDTACVCTLLSRTGRA
notes: as for B1
effect on hES cell survival (hES cells [3]): potent, dose dependent effects on hES cell survival
